Four compounds from patent US12599676B2, “Cytotoxic imidazo[1,2-A]pyridine compounds and their use in therapy” (MyricX Pharma Limited, priority 2022, dated 2026) can be followed below.

Data set [1] deals with SU-DHL-10 cell line (human B cell lymphoma). The data set is described as follows: Cell cytotoxicity in SU-DHL-10 cell line (CellTiter-Glo). It is filed as cell-based. The conditions noted are these: Homo sapiens, SU-DHL10, 72 h, 72 h treatment, CTG. As for the experimental part:
Certain Example compounds of the invention and Comparator Compound 1 were tested in the SU-DHL-10 cell line (human B cell lymphoma). Compounds which show efficacy in this assay are expected to be useful as agents for treating or preventing hyperproliferative disorders such as cancer.
(§1) Cells were seeded in 96-well microplates and treated with compounds or cisplatin (as a positive control) at 9 increasing concentrations in technical triplicate. […] On day 1, 90 μL of various cell suspensions with the number of cells ranging from 5000-8000 cells/well were seeded into wells of a 96-well plate (Corning). The number of cells to be seeded was previously determined. • 2. All 96-wells plates with cells were placed in an incubator overnight at 37° C. with 5% CO2. • 3. On day 2, cells were observed under a microscope ensuring the cells treated with vehicle control were in good condition. • 4. A dilution series of the test compounds and cisplatin were prepared at 10× the final concentrations required. 10 μL/well of 10× compound solution was added to the corresponding plates. The final volume was 100 μL/well for all the plates. Final DMSO concentration was 0.1%. • 5. On day 5 (after 72 hours of incubation), 50 μL of CTG reagent was added to each well. • 6. Contents were mixed for 5 minutes on an orbital shaker to facilitate cell lysis. • 7. The plate was allowed to incubate at room temperature for 10 minutes to stabilize luminescent signals.
Luminescence was recorded using an EnVision Multi Label Reader. Data analysis was performed using GraphPad Prism 8.0.
To calculate IC50, a concentration-response curve was generated using a nonlinear regression model with a sigmoidal concentration response. The formula for calculating the % of viable cells was shown below, and the IC50s are automatically generated by GraphPad Prism 8.0.
(LumTest article=luminescence in test article treated well; LumNone treated=luminescence in vehicle treated well; LumMedium control=luminescence in a well containing only medium and no cells; LumNone treated-LumMedium control was set as 100%)
On the technique in general: Cellular ATP, detected with luciferase, serves as a proxy for viable cell number.

Data set [2] concerns rat hepatocytes. The data set is described as follows: Hepatocyte metabolic stability, rat. In kind it is in vitro ADME. As for the experimental part: (§2) Biological Example 6: Rat hepatocyte half life Certain Example compounds and Comparator Compound 1 were tested for metabolic stability in a metabolic assay using mouse- and rat-derived hepatocytes. Compounds having good metabolic stability in the assay are expected to be especially useful as agents for preventing and/or treating cancer, by having a long half-life in human patients.
(§3) Frozen pooled rat and mouse hepatocytes obtained from LifeTechnologies were thawed and purified according to the manufacturer's instructions. The test compound (4 mM) in DMSO was diluted with acetonitrile to provide a 100 μM sub-stock then further diluted with pH 7.4 Krebs-Henseleit buffer (supplemented with CaCl2, NaHCO3, HEPES, fructose and glycine) to provide a 2 μM working solution. 25 μL of working solution was incubated at 37° C., treated with 25 μL of rat or mouse hepatocyte suspension (containing 1×10^6 cells/mL) and incubated at 37° C. with 5% CO2 level at 95% relative humidity. Wells were incubated for an appropriate time (0, 15, 30, 45, 60 and 75 min) then quenched with 250 μL of acetonitrile containing reference standards diltiazem, 7-ethoxycoumarin and propranolol). The plates were shaken, sonicated for 5 min then cooled to 4° C. until all sampling was complete. All plates were centrifuged at 4000 rpm for 20 min to pellet the debris. 110 μL supernatant was diluted 110 μL water and quantitated using LC-MS/MS.
(§4) A linear regression curve was fitted to a plot of natural logarithm (In) of AUC against time. The T-half (min)=0.693/slope

Data set [3] has as its system Caco-2 cells. The data set is described as follows: Caco-2 cell permeability assay. In kind it is in vitro ADME. The conditions noted are these: apical to basal Papp, 2 μM, pH 7.4, 2.5 h. As for the experimental part:
(§5) Certain Example compounds and Comparative Example 1 were tested for their apical to basal (AB) and basal to apical (BA) permeability in Caco-2 cells.
(§6) Cell Culture: Caco-2 cells were grown for 10 days in 96-well plates in HBSS buffer containing 10 mM HEPES. Both the apical and basal pH was buffered at pH 7.4. The apical/basal volumes were 75 μl and 250 μl respectively. The incubation time was 2.5 h at 37° C. (without shaking) under 5% CO2 & 95% relative humidity.
(§7) Cell Seeding: Cells were seeded at a density of 18750 cells/well (membrane area=0.0804 cm^2) in a 96 well plate.
(§8) AB Assay: 75 μl of cell suspension was added at a density 2.5×10^5 cells/ml to the apical wells. 40 ml media was added to the feeder tray. The plates were placed in the incubator (37° C., 5% CO2 and controlled humidity). The Caco-2 cells were grown for 10 days with a media change on every alternate day.
(§9) BA Assay: 25 μl of cell suspension was added at a density of 7.5×10^5 cells/ml to the bottom side (keeping the plate upside down) of apical wells. The plate (upside down position) was placed in the incubator (37° C., 5% CO2 and 95% Relative humidity) for 2 h. The plate was turned right side up. 75 μl media was added to the apical wells and 40 ml media to the feeder tray.
(§10) Permeablity Assay: The apical and basal wells were washed with buffer (pH 7.4) and 250 μl buffer was added to the wells of the basal plate. 75 μl of compound solution (2 μM, dissolved in water with 1% DMSO) was transferred to the apical wells (n=2). The apical plate was placed onto the basal plate. The lid was placed on to prevent evaporation. The assembly was incubated at 37° C. for 2.5 h (without shaking) under 5% CO2 and 95% relative humidity. After incubation the apical plate was separated from the basal plate. Aliquots were taken out from the acceptor and donor wells, diluted and quantified using LC-MS/MS along with initial donor samples.
(§11) Membrane Integrity Test: Solution in the apical wells was discarded by inverting the plate and soaking onto tissue paper. 250 μl buffer (pH 7.4) was added to each well of basal plate and 75 μl of Lucifer Yellow (LY; 0.1 mg/ml) in buffer (pH 7.4) to the wells of apical plate. The apical plate was placed onto the basal plate and the lid used to prevent evaporation. The assembly was incubated at 37° C. for 1 h (without shaking) under 5% CO2 and 95% relative humidity. The apical plate was separated from the basal plate. Fluorescence (Ex: 432 nm, Em: 530 nm) of aliquots (100 ul) was measured from basal wells. Fluorescence of 100 μl buffer (pH 7.4) and 100 μl LY(0.1 mg/ml) was also measured. Wells having more than 1% fluorescence intensity with respect to 0.1 mg/ml LY were considered non-integrated membrane. Such wells, if any, were not considered for permeability calculation.
(§12) Calculation: Drug was detected and quantified by LC-MS/MS. Data generated took the form of an apparent permeability (Papp) value. Papp=[Va/(AreaxTime)]×(LC-MS Area of Acceptor sample×Sample dilution factor/LC-MS Area of Initial Donor). Va=Volume of Acceptor Well (in ml)=0.25, Vd=Volume of Donor Well (in ml)=0.075, Area=Surface area of the membrane (cm2)=0.0804, Time=Time of incubation (sec)=9000 Results: The results of the assay are shown in Table 3 below.
For orientation: Caco-2 cells form a polarised layer with tight junctions and transporters.

Data set [4] can be described thus: Caco-2 cell permeability assay. In kind it is in vitro ADME. To be noted: human, Caco-2, pH 7.4, basal to apical Papp, pH 7.4, 2.5 h. How it is done: as §5, §6, §7, §8, §9, §10, §11, §12
For data set [5], the system named is mouse hepatocytes. The data set is described as follows: Hepatocyte metabolic stability, mouse. It is filed as in vitro ADME. How it is done: as §2, §3, §4
In data set [6] the test system is DOHH-2 tumor cells. The data set is described as follows: Subcutaneous xenograft DOHH-2 lymphoma model. It is filed as in vivo, CB17/SCID mice. How it is done:
The in vivo efficacy of certain Example compounds was assessed in a subcutaneous xenograft DOHH-2 Lymphoma Model using 10 female 6-8 week old CB17/SCID Mice. Each mouse was inoculated subcutaneously at the right front region with DOHH-2 tumor cells (5×10^6) in 0.1 ml of PBS mixed with matrigel (1:1 PBS:matrigel) for tumor development. The test compound administration started once the mean tumor size reached approximately 100-150 mm^3.
Compounds were administered either IP (vehicle 10 mM sodium phosphate+0.2% Tween-80 (pH7.4) or orally (vehicle 15 Na2HPO4 buffer (10 mM) (pH 4.5)+0.2% tween 80). Tumor volumes were measured in two dimensions using a caliper, and the volume expressed in mm^3 using the formula: V=(L×W×W)/2, where V is tumor volume, L is tumor length (the longest tumor dimension) and W is tumor width (the longest tumor dimension perpendicular to L).
Mice were dosed with Example 21 orally (12.5 or 25 mg/kg) once a day for 9 consecutive days (FIG. 3). Example 5 was dosed intraperitoneally (7 or 20 mg/kg) in a cycle consisting of administration QD for three days followed by a three day no-dosing period followed by QD dosing for a further three days (FIG. 4). Example 12 was dosed intraperitoneally (0.7 or 2 mg/kg) in a cycle consisting of administration QD for three days followed by a three day no-dosing period followed by QD dosing for a further three days (FIG. 5). In a separate study Example 12 was dosed at […] in a cycle consisting of administration QD for two days followed by either four or six day no-dosing period, and this cycle was repeated three times (FIG. 6).

For data set [7], the system named is LYXFDLBC4113 (patient-derived xenograft lymphoma). The data set is described as follows: Cell cytotoxicity CellTiter-Glo, LYXFDLBC4113. It is filed as cell-based. How it is done: as §1
(§13) The effects of Comparator Compound 1 and certain Example compounds on the viability of various cell lines (LYXFDLBC2835, LYXFDLBC4009 and LYXFDLBC411 (patient-derived xenograft lymphoma), HT1080 (human fibrosarcoma), CA46 (human B cell lymphoma), RKO (human colon carcinoma), NCI-H1703 (human lung squamous cell carcinoma), MX-1 (human breast carcinoma), DU4475 (human breast carcinoma), LU2511 (human lung large cell undifferentiated carcinoma), LU0884 (human lung squamous cell carcinoma)), Panc-1 (human pancreatic carcinoma), MCF-7 (human breast cancer), SW480 (human colon adenocarcinoma) and HCC1806 (human breast ductal carcinoma) were performed using the standard CellTiter-Glo assay (CTG, Promega) as described in Biological Example 2. Compounds which show efficacy in these assays are expected to be useful as agents for treating or preventing hyperproliferative disorders such as cancer.

Data set [8] has as its system LYXFDLBC2835 (patient-derived xenograft lymphoma). The data set is described as follows: Cell cytotoxicity CellTiter-Glo, LYXFDLBC2835. It is filed as cell-based. As for the experimental part: as §1, §13
For data set [9], the system named is LYXFDLBC4009 (patient-derived xenograft lymphoma). The data set is described as follows: Cell cytotoxicity CellTiter-Glo, LYXFDLBC4009. It is filed as cell-based. As for the experimental part: as §1, §13

A word on the IC50: it is the concentration needed to halve the response being measured. Lower therefore signals greater potency. In general, Papp B→A refers to how fast a substance crosses the layer from the basolateral side.

Take `Cc1c(CCOc2c(-c3ccc4ncc(CN(C)C)n4c3)ccc(F)c2F)c(C(C)O)nn1C` (stereo not drawn) [Example 6, 1-(4-(2-(6-(3-((dimethylamino)methyl)imidazo[1,2-a]pyridin-6-yl)-2,3-difluorophenoxy)ethyl)-1,5-dimethyl-1H-pyrazol-3-yl)ethan-1-ol]: half-maximal inhibition in [1] (IC50) required 5 nM. Further, the “rHeps t^1/2” value in [2] was 15 min. The “Caco-2 A-B” value in [3] stood at 3.04 ×10⁻⁶ cm/s. For the same compound, the Papp B→A at 2.5 h, 2 μM in data set [4] amounted to 22 ×10⁻⁶ cm/s.

Regarding `CNCc1cnc2ccc(-c3ccc(F)c(F)c3OCCc3c(C(C)O)nn(C)c3C)cn12` (stereo not drawn) [Example 5, 1-{4-[2-(2,3-difluoro-6-{3-[(methylamino)methyl]imidazo[1,2-a]pyridin-6-yl}phenoxy)ethyl]-1,5-dimethyl-1H-pyrazol-3-yl}ethan-1-ol], in data set [5], the “mHeps t^1/2” value stood at 51.17 min. Besides, the IC50 in [1] is 5.9 nM. Further, in data set [3], the “Caco-2 A-B” value is 0.195 ×10⁻⁶ cm/s. The Papp B→A at 2.5 h, 2 μM in [4] was 16 ×10⁻⁶ cm/s. Besides, the “tumour volume compared to vehicle” value in data set [6] (intraperitoneal dosing (Example 5: 7 or 20 mg/kg; Example 12: 0.7 or 2 mg/kg), QD cycles) is “significant reduction in tumour volume or reduced growth in tumour volume”.

For the compound `CNCc1cnc2ccc(-c3ccc(F)c(F)c3OCCc3c(C(C)(C)O)nn(C)c3C)cn12` [Example 21, 2-(4-(2-(2,3-difluoro-6-(3-((methylamino)methyl)imidazo[1,2-a]pyridin-6-yl)phenoxy)ethyl)-1,5-dimethyl-1H-pyrazol-3-yl)propan-2-ol], the IC50 in data set [7] amounted to 23 nM; in data set [8] it was 54 nM; in [1], 0.4 nM; in data set [9], 35 nM. For the same compound, in [6] (oral dosing 12.5 or 25 mg/kg once a day for 9 days), the “tumour volume compared to vehicle” value is recorded as “significant reduction in tumour volume or reduced growth in tumour volume”.

`CNCc1cnc2ccc(-c3ccc(F)cc3OCCc3c(C(C)O)nn(C)c3C)cn12` (stereo not drawn) [Example 1, 1-{4-[2-(5-fluoro-2-{3-[(methylamino)methyl]imidazo[1,2-a]pyridin-6-yl}phenoxy)ethyl]-1,5-dimethyl-1H-pyrazol-3-yl}ethan-1-ol] showed an IC50 in [1] of 15.3 nM. Also, in data set [2], the “rHeps t^1/2” value was determined as 68 min. The “Caco-2 A-B” value in [3] came out at 0.1 ×10⁻⁶ cm/s. For the same compound, the Papp B→A at 2.5 h, 2 μM in [4] amounted to 14.1 ×10⁻⁶ cm/s.
